Results taken from patent US8734775B2, “Chemokine derived peptides that bind with chemokine receptor CXCR3 and uses for chronic wound and angiogenesis inhibition treatments” (University of Pittsburgh, priority 2011, dated 2014).

What was measured:
HMEC-1 cells = experiment: Scratch assay of endothelial cell motility; type: cell-based, human; conditions: 24 hours
Description: To determine whether IP-10dp inhibits endothelial cell motility, a conventional “scratch assay” was performed. ELR-negative chemokines, such as IP-10, inhibit fibroblast and endothelial cell motility. IP-10 has been shown in prior literature to inhibit HMEC-1 cells' motility in the presence of angiogenic growth factors VEGF165 and bFGF. Thus, a scratch assay comparison was conducted to examine whether, and to what extent, IP-10dp could mimic the inhibitory effects of the full length IP-10. HMEC-1 cells were plated at 2.5×10^5 cells/well in 12 well culture plates and grown to 80 to 85% confluence and quiesced in 0.5% dialyzed fetal bovine serum for 24 hours at 37° C. in 5% CO2. The cells were washed one time with PBS and then incubated in 0.5% dialyzed MDCB 131 media for 24 hours at 37° C. in 5% CO2. The cultures were scraped with a rubber policeman making a 1 mm wide denuded area. […] Images were taken at time zero and 24 hours, and the relative distance traveled by the cells into the a cellular area was determined using MetaMorph. The HMEC-1 culture images were analyzed for the ability of the cells to migrate into a denuded area over a 24 hour period in the presence or absence of VEGF165.

[1] = tested on: PKA activity in HMEC-1 cells; experiment: PKA activity assay in endothelial cells; type: cell-based, human; conditions: IP-10dp 10 μM
Description: To further investigate the cAMP activation of PKA, a PKA assay experiment was conducted. As above, HMEC-1 cells were grown in complete growth media then further incubated in 0.5% dialyzed FBS MCDB 131 media for 24 hours. The cells were then stimulated with forskolin ([…]), and/or combinations of VEGF (100 ng/ml), IP-10 (200 ng/ml), and/or IP-10dp (10 μM) for 15, 30 and 60 minutes. The cells were lysed with an ice-cold hypotonic solution (50 mM Tris pH 7.4, 1 mM EDTA, 10 mg/ml aprotinin and 1 mM PMSF). The cells were incubated on ice for 30 minutes then centrifuged to remove the cell membranes. PKA activity was measured using a commercially available cAMP dependent protein kinase kit (Non-Radioactive Detection kit, from Promega Corp., of Madison, Wis.) according to the manufacturer's protocol. Absorbance was read at 570 nm with the solubilization buffer serving as a blank.

[2] = tested on: VEGF-induced new vessel formation; experiment: In vivo Matrigel plug assay, vessel development; parameters: species or system C57Bl/6 mice; conditions: mice, day 10
Description: To determine whether IP-10dp is able to inhibit vessel growth, an in vivo Matrigel assay was used to establish that IP-10dp is able to inhibit angiogenesis. Vessel development and regression in vivo was determined generally according to the method previously described by Bodnar et al. (see Bodnar et al., 2006, supra). In brief, for vessel development GFR Matrigel supplemented with VEGF165 in the absence or presence of IP-10 or IP-10dp was injected into the groin area of the mice. Ten days post inoculation; the Matrigel plug was removed and stained with Masson Trichrome to visualize endothelial infiltration.
Specifically, Matrigel with VEGF was injected into the groin area near the dorsal midline of 12-month-old C57Bl/6 female mice. In addition to Matrigel plus VEGF, the mice were injected with saline (control), 10 μg of IP-10 or 100 μg of IP-10dp. Two injections were made in each mouse in separate dorsal areas, one control injection and the other with the designated experimental treatment. On day 10, the Matrigel plugs were removed and either paraffin embedded or flash frozen. They were prepared and examined histologically for new vessel development using Masson's trichrome staining. […] This particular result is taken as being indicative that IP-10dp has the ability to inhibit VEGF-induced new vessel formation.

PESKAIKNLLKAVSKEMSKRSP (IP-10dp; listed as Homo sapiens) [synthetic fragment of IP-10 comprising residues 78-98, the C-terminal α-helical domain]
inhibition of endothelial cell migration, excess over IP-10 (HMEC-1 cells; IP-10dp 10 μM vs IP-10 200 ng/ml): 10%
inhibition of HMEC-1 cell motility (HMEC-1 cells; IP-10dp 10 μM, with and without VEGF (100 ng/ml)): inhibited motility
fold increase in PKA assay [1]: 2-3 fold
PKA activity in comparison to VEGF and untreated cells ([1]; 15, 30 and 60 minutes): significant increase in PKA activity
inhibition of VEGF-induced angiogenesis in Matrigel plug ([2]; 10 μg IP-10 or 100 μg IP-10dp with Matrigel plus VEGF, Masson's trichrome): inhibited this angiogenesis
inhibition of VEGF-induced new vessel formation compared with IP-10 ([2]; 100 μg IP-10dp vs 10 μg IP-10): more effective than IP-10
